Earlier results as cited in patent US20050129759A1, “Sustained release compositions and controlled delivery method” (priority 2003, published 2005).

Conditions: not entrapped; stated as typical behaviour

For NC(N)=O.OO [urea peroxide], the “stability of free active agent” value is given as “very unstable, shock sensitive, and deteriorates very quickly on contact with air humidity”.
